Structures can show the parent of a compound that is named as a salt.

In the assay the target is T1, human Glucose-dependent Insulinotropic Polypeptide Receptor (hGIPR) (Homo sapiens, UniProt P48546).
T1 sequence (P48546 22-466): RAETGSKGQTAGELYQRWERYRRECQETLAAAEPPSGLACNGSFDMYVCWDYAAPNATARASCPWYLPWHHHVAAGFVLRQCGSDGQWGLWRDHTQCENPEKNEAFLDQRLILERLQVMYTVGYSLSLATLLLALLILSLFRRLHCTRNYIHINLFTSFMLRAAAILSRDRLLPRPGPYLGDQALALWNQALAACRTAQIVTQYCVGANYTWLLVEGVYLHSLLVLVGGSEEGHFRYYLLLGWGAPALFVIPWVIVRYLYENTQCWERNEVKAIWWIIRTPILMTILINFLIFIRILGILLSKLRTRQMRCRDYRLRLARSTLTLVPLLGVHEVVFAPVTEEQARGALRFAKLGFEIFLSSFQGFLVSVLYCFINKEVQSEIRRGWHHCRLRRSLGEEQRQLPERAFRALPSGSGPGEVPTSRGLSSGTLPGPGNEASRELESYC
The experiment in a line: Functional in vitro GIPR antagonist potency assay (cAMP HTRF, CHO-K1 cells stably expressing hGIPR, hGIP stimulation at about EC80). The assay is classed as cell-based. Particulars: geometric mean, hGIP at estimated EC80, examples marked ^2: overall geometric mean of multiple forms (including salts) tested. The procedure:
Example AA. Functional In Vitro GIPR Antagonist Potency Assay
The functional in vitro antagonist potency for test compounds was determined by monitoring intracellular cyclic adenosine monophosphate (cAMP) levels in Chinese hamster ovary (CHO)—K1 cells stably expressing the human Glucose-dependent Insulinotropic Polypeptide Receptor (hGIPR). Following agonist activation, hGIPR associates with the G-protein complex causing the Gαs subunit to exchange bound guanosine diphosphate (GDP) for guanosine triphosphate (GTP), followed by dissociation of the Gαs-GTP complex. The activated Gas subunit can couple to downstream effectors to regulate the levels of second messengers or cAMP within the cell. Thereby, determination of intracellular cAMP levels allows for pharmacological characterization. Intracellular cAMP levels are quantitated using a homogenous assay utilizing the Homogeneous Time Resolved Fluorescence (HTRF) technology from Perkin Elmer. […] The two entities compete for binding to a monoclonal anti-cAMP antibody labeled with cryptate. The specific signal is inversely proportional to the concentration of cAMP in the cells.
Test compounds were solubilized to a concentration of 30 mM in 100% dimethyl sulfoxide (DMSO). An 11-point dilution series using 1 in 3.162-fold serial dilutions was created in 100% DMSO with a top concentration of 8 mM. The serially diluted compound was spotted with an Echo Acoustic liquid handler (Beckman Coulter) into a 384-well assay plate (Corning, Cat No. 3824) at 50 nL/well with duplicate points at each concentration, at a 200× final assay concentration (FAC). The final compound concentration range in the assay was 40 μM to […], with a final DMSO concentration of 0.5%.
Frozen assay-ready vials (at 1×10^7 cells/vial) of CHO-K1 cells stably expressing the Gs-coupled human GIPR receptor (Eurofins, DiscoverX, Cat No. 95-0146C2) were thawed, counted, and resuspended in assay buffer consisting of Hank's Balanced Salt Solution (HBSS, Lonza Cat No. 10-527) containing 20 mM (4-(2-hydroxyethyl)-1-piperazineethanesulfonic acid (HEPES, Lonza, Cat No. 17-737E), 0.1% bovine serum albumin (BSA, Sigma, Cat No. A7979), and 200 μM 3-isobutyl-1-methylxanthine (IBMX, Sigma, Cat No. 15879) at a density of 4×10^5 cells/mL. Cells were added to assay plate (5 μL/well of 4×10^5 cells/mL stock for 2,000 cells/well final) containing 50 nL of 200× FAC test compound, and incubated at 37° C. (95% O2: 5% CO2) for 2 hours, with micro-clime lids (Labcyte, Cat No. LLS-0310). Following the 2-hour cell and compound incubation, a stimulation mix comprised of hGIPR agonist human glucose-dependent insulinotropic polypeptide (hGIP, full length, Sigma Cat No. G2269) in assay buffer/0.1% DMSO was added to the assay plate (5 μL/well) at an estimated EC80 FAC (based on previous hGIP agonist curves) and incubated for another 30 minutes with micro-clime lids at 37° C. (95% O2: 5% CO2), after which intracellular cAMP levels were quantified as per Perkin Elmer's protocol (5 μL of d2 and then 5 μL cryptate, incubated for 1 hour at room temperature). Emission spectra of samples were measured on a Pherastar plate reader (BMG Labtech Inc) using a HTRF protocol (excitation, 320 nm; emission, 665 nm/620 nm).
(95% O2: 5% CO2), with a micro-clime lid. Following the 2-hour cell and DMSO incubation, a hGIP concentration response curve at 2× FAC (12-point curve using 1 in 3 serial dilutions, with triplicate points at each concentration, 100 nM final top concentration) in assay buffer/1% DMSO was added (5 μL/well) and incubated for a further 30 minutes with a micro-clime lid at 37° C. (95% O2: 5% CO2), after which intracellular cAMP levels were quantified and samples measured as described previously. Experiments passed quality control if the agonist concentration used for stimulation fell between the on-the-day EC50-EC90. […]
Regarding `CC(C)c1ccc(NC(=O)N2CCC[C@@H]2C(=O)Nc2ccc3cc(C(=O)O)ccc3c2)cc1` (racemic) [Example 41, 6-[(1-{[4-(propan-2-yl)phenyl]carbamoyl}prolyl)amino]naphthalene-2-carboxylic acid], the IC50 (as a rule, the concentration needed to halve the response being measured) is 160 nM.
For the molecule `CC(C)c1ccc(NC(=O)N2CCC[C@@H]2C(=O)Nc2ccc(-c3ccc(C(=O)O)cc3)cc2)cc1` (racemic) [Example 44, 4′-[(1-{[4-(propan-2-yl)phenyl]carbamoyl}prolyl)amino][1,1′-biphenyl]-4-carboxylic acid], the IC50 was 6.8 nM.
As to `CC(C)c1ccc(NC(=O)N2CC[C@H](C)[C@@H]2C(=O)Nc2ccc(-c3ccc(C(=O)O)cc3)cc2)cc1` (single isomer, unassigned) [Example 34, 4′-{[(3S)-3-Methyl-1-{[4-(propan-2-yl)phenyl]carbamoyl}-D-prolyl]amino}[1,1′-biphenyl]-4-carboxylic acid or 4′-{[(3R)-3-Methyl-1-{[4-(propan-2-yl)phenyl]carbamoyl}-L-prolyl]amino}[1,1′-biphenyl]-4-carboxylic acid], the IC50 was 10 nM.
In the case of `CC(C)c1ccc(NC(=O)N2CC[C@@H](C)[C@@H]2C(=O)Nc2ccc(-c3ccc(C(=O)O)cc3)cc2)cc1` (single isomer, unassigned) [Example 35, 4′-{[(3R)-3-Methyl-1-{[4-(propan-2-yl)phenyl]carbamoyl}-D-prolyl]amino}[1,1′-biphenyl]-4-carboxylic acid or 4′-{[(3S)-3-Methyl-1-{[4-(propan-2-yl)phenyl]carbamoyl}-L-prolyl]amino}[1,1′-biphenyl]-4-carboxylic acid] it was 4.6 nM; in that of `CC[C@H]1CCN(C(=O)Nc2ccc(C(C)C)cc2)[C@H]1C(=O)Nc1ccc(-c2ccc(C(=O)O)cc2)cc1` (single isomer, unassigned) [Example 165, 4′-{[(3R)-3-ethyl-1-{[4-(propan-2-yl)phenyl]carbamoyl}-L-prolyl]amino}[1,1′-biphenyl]-4-carboxylic acid or 4′-{[(3S)-3-ethyl-1-{[4-(propan-2-yl)phenyl]carbamoyl}-D-prolyl]amino}[1,1′-biphenyl]-4-carboxylic acid], 4.6 nM.
In the case of `CC[C@@H]1CCN(C(=O)Nc2ccc(C(C)C)cc2)[C@H]1C(=O)Nc1ccc(-c2ccc(C(=O)O)cc2)cc1` (single isomer, unassigned) [Example 166, 4′-{[(3R)-3-ethyl-1-{[4-(propan-2-yl)phenyl]carbamoyl}-D-prolyl]amino}[1,1′-biphenyl]-4-carboxylic acid or 4′-{[(3S)-3-ethyl-1-{[4-(propan-2-yl)phenyl]carbamoyl}-L-prolyl]amino}[1,1′-biphenyl]-4-carboxylic acid] it was 5.7 nM; in that of `O=C(O)[C@@H]1CCc2nc(NC(=O)[C@H]3CCCN3C(=O)Nc3ccc(C(F)(F)F)cc3)ccc2C1` (single isomer, unassigned) [Example 217, 2-[(1-{[4-(trifluoromethyl)phenyl]carbamoyl}-D-prolyl)amino]-5,6,7,8-tetrahydroquinoline-6-carboxylic acid, DIAST-1], 140 nM; in that of `O=C(O)[C@@H]1CCc2nc(NC(=O)[C@H]3CCCN3C(=O)Nc3ccc(C(F)(F)F)cc3)ccc2C1` (single isomer, unassigned) [Example 218, 2-[(1-{[4-(trifluoromethyl)phenyl]carbamoyl}-D-prolyl)amino]-5,6,7,8-tetrahydroquinoline-6-carboxylic acid, DIAST-2], 33 nM.
As to `O=C(O)[C@@H]1CCc2nc(NC(=O)[C@H]3CCCN3C(=O)Nc3ccc(C(F)(F)F)c(F)c3)ccc2C1` (single isomer, unassigned) [Example 220, 2-[(1-{[3-fluoro-4-(trifluoromethyl)phenyl]carbamoyl}-D-prolyl)amino]-5,6,7,8-tetrahydroquinoline-6-carboxylic acid, DIAST-1], the IC50 is 47 nM.
Take `O=C(O)[C@@H]1CCc2nc(NC(=O)[C@H]3CCCN3C(=O)Nc3ccc(C(F)(F)F)c(F)c3)ccc2C1` (single isomer, unassigned) [Example 221, 2-[(1-{[3-fluoro-4-(trifluoromethyl)phenyl]carbamoyl}-D-prolyl)amino]-5,6,7,8-tetrahydroquinoline-6-carboxylic acid, DIAST-2]: the IC50 is 11 nM.
To `Cc1cc(NC(=O)N2CCC[C@@H]2C(=O)Nc2ccc3c(n2)CC[C@@H](C(=O)O)C3)ccc1C(F)(F)F` (single isomer, unassigned) [Example 226, 2-[(1-{[3-methyl-4-(trifluoromethyl)phenyl]carbamoyl}-D-prolyl)amino]-5,6,7,8-tetrahydroquinoline-6-carboxylic acid, DIAST-1] belongs 81 nM; to `Cc1cc(NC(=O)N2CCC[C@@H]2C(=O)Nc2ccc3c(n2)CC[C@@H](C(=O)O)C3)ccc1C(F)(F)F` (single isomer, unassigned) [Example 227, 2-[(1-{[3-methyl-4-(trifluoromethyl)phenyl]carbamoyl}-D-prolyl)amino]-5,6,7,8-tetrahydroquinoline-6-carboxylic acid, DIAST-2], 53 nM.
On to `CC(C)c1ccc(NC(=O)N2CCC[C@@H]2C(=O)Nc2ccc3c(n2)CC[C@@H](C(=O)O)C3)cc1F` (single isomer, unassigned) [Example 228, 2-[(1-{[3-fluoro-4-(propan-2-yl)phenyl]carbamoyl}-D-prolyl)amino]-5,6,7,8-tetrahydroquinoline-6-carboxylic acid, trifluoroacetate salt, DIAST-1], for which the IC50 was 36 nM.
Take `CC(C)c1ccc(NC(=O)N2CCC[C@@H]2C(=O)Nc2ccc3c(n2)CC[C@@H](C(=O)O)C3)cc1F` (single isomer, unassigned) [Example 229, 2-[(1-{[3-fluoro-4-(propan-2-yl)phenyl]carbamoyl}-D-prolyl)amino]-5,6,7,8-tetrahydroquinoline-6-carboxylic acid, trifluoroacetate salt, DIAST-2]: the IC50 was 11 nM.
To `CC(C)c1ccc(NC(=O)N2CCC[C@@H]2C(=O)Nc2ccc(-c3ccc(C(=O)O)nc3)cc2)cc1` [Example 1, Ammonium 5-{4-[(1-{[4-(propan-2-yl)phenyl]carbamoyl}-D-prolyl)amino]phenyl}pyridine-2-carboxylate] belongs 16 nM; to `CC(C)c1ccc(NC(=O)N2CCC[C@@H]2C(=O)Nc2ccc(-c3ccc(C(=O)O)cn3)cc2)cc1` [Example 2, 6-{4-[(1-{[4-(Propan-2-yl)phenyl]carbamoyl}-D-prolyl)amino]phenyl}pyridine-3-carboxylic acid], 74 nM.
To `CC(C)c1ccc(NC(=O)N2CCC[C@@H]2C(=O)Nc2ccc(-c3cccc(C(=O)O)c3)cc2)cc1` [Example 3, 4′-[(1-{[4-(Propan-2-yl)phenyl]carbamoyl}-D-prolyl)amino][1,1′-biphenyl]-3-carboxylic acid] belongs 17 nM.

The record behind these values is patent US20240366598A1, “GLUCOSE-DEPENDENT INSULINOTROPIC POLYPEPTIDE RECEPTOR ANTAGONISTS AND USES THEREOF” (Pfizer Inc., priority 2023, published 2024).
